Test results as given in patent US20200375949A1, “BISPHENOL COMPOUNDS” (THE TRUSTEES OF THE UNIVERSITY OF PENNSYLVANIA, priority 2017, published 2020).
≈ marks a conversion by molar mass, not a printed value.

Tests used:
[1] = tested on: Streptococcus gordonii strain DL1; assay: MIC assay, S. gordonii; assay type: cell-based; conditions: 5% CO2, 37° C., 20-24 hours
Excerpt: (§1) Streptococcus mutans wild-type strain UA159 was provided by Dr. Bettina Buttaro from Temple University Medical School, Philadelphia, Pa. Streptococcus gordonii strain DL1 and Streptococcus sanguinis strain 10904 were provided by Dr. Robert G. Quivey from University of Rochester Medical School. Streptococcus gordonii strain DL1 may be obtained from the American Type Culture Collection under accession #49818. Streptococcus sanguinis strain 10904 may be obtained from the National Collection of Type Cultures under accession #10904. Bacteria were routinely maintained on in Bacto™ Todd-Hewitt (TH) agar plates and liquid cultures were grown in Bacto™ Todd-Hewitt broth (THB). For growth of biofilms, THB was supplemented with 0.1% sucrose. Incubation was stagnant at 37° C. Bacterial strains Methicillin-Resistant Staphylococcus aureus HPV107, Staphylococcus epidermidis Fussel [NCTC 11047, R. Hugh 2466], Streptococcus sobrinus SL1 [CCM 6070, CNCTC 9/89], Enterococcus faecalis NCTC 775 [DSM 20478, JCM 8726, NCDO 581, Tissier], Pseudomonas aeruginosa [CCEB 481, MDB strain BU 277, NCIB 8295, NCPPB 1965, NCTC 10332, NRRL B-771, R. Hugh 815], Serratia marcescens BS 303 [CDC 813-60, NCIB 9155, NCTC 10211], and Acinetobacter baumannii 2208 [81, DSM 6974] were purchased from the American Type Culture Collection.
(§2) Stock solutions of compounds (10 mM) were serial diluted (200 μL, 100 μL, 50 μL, 10 μL, and 2 μL) in THB media in flat-bottom 96-well microtiter plates (total volume 100 μL). Bacterial cultures were grown in brain heart infusion or nutrient broth media to mid-exponential phase, back diluted to an OD of 0.1 and then inoculated into the 96-well plate to reach a final volume of 200 μL. Plates were inoculated at 37° C. in 5% CO2 for 20-24 hours upon which time wells were evaluated visually for bacterial growth and/or the wells' OD630 was evaluated via spectrophotometer. […] DMSO controls corresponding to each test concentration were performed. Biological triplicates were performed to confirm results.

[2] = tested on: Streptococcus sanguinis strain 10904; assay: MIC assay, S. sanguinis; assay type: cell-based; conditions: 5% CO2, 37° C., 20-24 hours
Excerpt: as §1, §2

[3] = tested on: Streptococcus mutans wild-type strain UA159; assay: MIC assay, S. mutans; assay type: cell-based; conditions: planktonic, 5% CO2, 37° C., 20-24 hours
Excerpt: as §1, §2

S. mutans = S. mutans MBC assay; assay type: cell-based, Streptococcus mutans; conditions: for bacteriostatic or bactericidal properties (regrow analysis, MIC vs MBC): S. mutans; for MBC: Streptococcus mutans, 3-log reduction in CFU count (99.9% bacterial death)
Protocol: MIC assay was performed (above) and each well diluted (log-dilution) into a new 96-well microtiter plate. Five μL from each dilution was then plated on THB agar plates and incubated for 24 hours. Colony counts were performed to determine MBC which is defined as the concentration which there is a 3-log reduction in CFU count which corresponds to 99.9% bacterial death.

[4] = tested on: red blood cells (mechanically defibrinated sheep blood); assay: Hemolysis assay (cell lysis); assay type: cell-based; set-up: red blood cell lysis: unit not given here; conditions: 1 hour, 37° C.
Protocol: The effects of the compounds described herein to lyse cells was evaluated in this example. Hemolysis assays were performed on mechanically defibrinated sheep blood (Hemostat Labs: DSB030). 1.5 mL of blood was placed into a microcentrifuge tube and centrifuged at 10,000 rpm for ten minutes. The supernatant was removed and then the cells were resuspended with 1 mL of phosphate-buffered saline (PBS). The suspension was centrifuged as previously, the supernatant was removed, and cells were resuspended two more times. The final cell suspension was diluted twentyfold with PBS. The twentyfold suspension dilution was then aliquoted into microcentrifuge tubes containing compound serially diluted in PBS. TritonX (1% by volume) served as a positive control (100% lysis marker) and sterile PBS served as a negative control (0% lysis marker). Samples were then placed in an incubator at 37° C. and shaken at 200 rpm. After 1 hour, the samples were centrifuged at 10,000 rpm for ten minutes. The absorbance of the supernatant was measured with a UV spectrometer at a 540 nm wavelength. See, e.g., Peng, Chem. Comm. 2011, 47, 4896-4898.

[5] = Concentration 500 μM, TritonX 100% lysis, PBS 0% lysis

MIC [1]	MIC [2]	MIC [3]	SMILES	further results
> 250 µM	> 250 µM	> 250 µM	CC(C)c1cc(-c2c(O)ccc3cc(Br)ccc23)cc(C(C)C)c1O [Compound B6, 6-Bromo-1-(4-hydroxy-3,5-diisopropylphenyl)naphthalen-2-ol]	–
16 µM (≈ 5.83 µg/mL)	8 µM (≈ 2.92 µg/mL)	16 µM (≈ 5.83 µg/mL)	CCCc1cc(-c2c(O)ccc3cc(OC)ccc23)cc(C(C)(C)C)c1O [Compound B11, 1-(3-(tert-Butyl)-4-hydroxy-5-propylphenyl)-6-methoxynaphthalen-2-ol]	bacteriostatic or bactericidal properties (regrow analysis, MIC vs MBC) (S. mutans): bactericidal; MBC (S. mutans): 63 µM (≈ 23 µg/mL)
> 250 µM	> 250 µM	> 250 µM	Cc1cc(O)c(-c2cc(C(C)C)c(O)c(C(C)C)c2)c(C)c1C [Compound A9, 3′,5′-Diisopropyl-4,5,6-trimethyl-[1,1′-biphenyl]-2,4′-diol]	–
> 250 µM	> 250 µM	> 250 µM	Cc1cc(-c2cc(C)c(O)c(C)c2)cc(C)c1O [Compound A3]	–
> 250 µM	> 250 µM	> 250 µM	CC(C)c1cc(-c2c(O)ccc3cc(-n4cccn4)ccc23)cc(C(C)C)c1O [Compound B13, 1-(4-Hydroxy-3,5-diisopropylphenyl)-6-(1H-pyrazol-1-yl)naphthalen-2-ol]	–
8 µM (≈ 3.16 µg/mL)	8 µM (≈ 3.16 µg/mL)	32 µM (≈ 12.6 µg/mL)	COC(=O)c1cc2c(-c3cc(C(C)C)c(O)c(C(C)C)c3)c(O)ccc2cc1O [Compound B10, Methyl 3,7-dihydroxy-8-(4-hydroxy-3,5-diisopropylphenyl)-2-naphthoate]	MBC (S. mutans): 32 µM (≈ 12.6 µg/mL)
63 µM (≈ 22 µg/mL)	63 µM (≈ 22 µg/mL)	63 µM (≈ 22 µg/mL)	CC(C)(C)c1cc(-c2c(O)ccc3ccccc23)cc(C(C)(C)C)c1O [Compound B3]	–
32 µM (≈ 17.2 µg/mL)	16 µM (≈ 8.59 µg/mL)	63 µM (≈ 33.8 µg/mL)	C=CCc1cc(-c2c(O)ccc3c(-c4cc(CC=C)c(O)c(C(C)(C)C)c4)c(O)ccc23)cc(C(C)(C)C)c1O [Compound B14, 1,5-Bis(3-allyl-5-(tert-butyl)-4-hydroxyphenyl)naphthalene-2,6-diol]	–
16 µM (≈ 5 µg/mL)	32 µM (≈ 10 µg/mL)	32 µM (≈ 10 µg/mL)	Cc1cc(-c2cc(C)c(O)c(C(C)(C)C)c2)c(C(C)C)cc1O [Compound A7]	MBC (S. mutans): 32 µM (≈ 10 µg/mL)
16 µM (≈ 6.58 µg/mL)	8 µM (≈ 3.29 µg/mL)	16 µM (≈ 6.58 µg/mL)	C=CCc1cc(-c2c(O)ccc3cc(Br)ccc23)cc(C(C)(C)C)c1O [Compound B8, 1-(3-Allyl-5-(tert-butyl)-4-hydroxyphenyl)-6-bromonaphthalen-2-ol]	bacteriostatic or bactericidal properties (regrow analysis, MIC vs MBC) (S. mutans): bactericidal; MBC (S. mutans): 32 µM (≈ 13.2 µg/mL)
250 µM (≈ 80.6 µg/mL)	250 µM (≈ 80.6 µg/mL)	> 250 µM	C=CCc1cc(-c2cc(C)c(O)cc2C(C)C)cc(CC=C)c1O [Compound A10, 3′,5′-Diallyl-2-isopropyl-5-methyl-[1,1′-biphenyl]-4,4′-diol]	–
125 µM (≈ 45.3 µg/mL)	63 µM (≈ 22.8 µg/mL)	125 µM (≈ 45.3 µg/mL)	C=CCc1cc(-c2c(O)ccc3cc(OC)ccc23)cc(C(C)(C)C)c1O [Compound B7, 1-(3-Allyl-5-(tert-butyl)-4-hydroxyphenyl)-6-methoxynaphthalen-2-ol]	–
> 250 µM	> 250 µM	> 250 µM	C=CCc1c(C)cc(C)c(-c2c(C)cc(C)c(CC=C)c2O)c1O [Compound A5, 3,3′Diallyl-4,4′,6,6′-tetramethyl-[1,1′-biphenyl]-2,2′-diol]	–
125 µM (≈ 37.1 µg/mL)	125 µM (≈ 37.1 µg/mL)	> 250 µM	C=CCc1cc(-c2cc(C)ccc2O)cc(C(C)(C)C)c1O [Compound A8, 3′-Allyl-5′-(tert-butyl)-5-methyl-[1,1′-biphenyl]2,4′-diol]	–
> 250 µM	> 250 µM	> 250 µM	Cc1c(O)c(-c2cc(C(C)(C)C)c(O)c(C(C)(C)C)c2)c(C)c(-c2cc(C(C)(C)C)c(O)c(C(C)(C)C)c2)c1O [Compound A11, 3,3″,5,5″-Tetra-tert-butyl-2′,5′-dimethyl-[1,1′:3′,1″-terphenyl]-4,4′,4″,6′-tetraol]	–
125 µM (≈ 45.6 µg/mL)	125 µM (≈ 45.6 µg/mL)	125 µM (≈ 45.6 µg/mL)	CC(C)(C)c1cc(-c2c(O)ccc3ccc(O)cc23)cc(C(C)(C)C)c1O [Compound B4, 1-(3,5-Di-tert-butyl-4-hydroxyphenol)naphthalene-2-7-diol]	–
–	–	–	COc1cccc(CCc2ccccc2O)c1 [Compound 6]	red blood cell lysis ([4]; Concentration 0.25 μM): 0.03; red blood cell lysis ([4]; Concentration 0.5 μM): −0.02; red blood cell lysis ([4]; Concentration 1 μM): −0.03; red blood cell lysis ([4]; Concentration 2 μM): −0.03; red blood cell lysis ([4]; Concentration 4 μM): 0.35; red blood cell lysis ([4]; Concentration 8 μM): −0.03; red blood cell lysis ([4]; Concentration 16 μM): −0.03; red blood cell lysis ([4]; Concentration 32 μM): −0.02; red blood cell lysis ([4]; Concentration 63 μM): 0.07; red blood cell lysis ([4]; Concentration 125 μM): −0.02; red blood cell lysis ([4]; Concentration 250 μM): 0.02; red blood cell lysis [4, 5]: 0.27
> 250 µM	> 250 µM	> 250 µM	C=CCc1cc(-c2c(O)cc(C)c(C)c2C)cc(C(C)(C)C)c1O [Compound A6, 3′-Allyl-5′-(tert-butyl)-4,5,6-trimethyl-[1,1′-biphenyl]2,4′-diol]	–
250 µM (≈ 103 µg/mL)	250 µM (≈ 103 µg/mL)	> 250 µM	CCCc1cc(-c2c(O)ccc3cc(Br)ccc23)cc(C(C)(C)C)c1O [Compound B12, 6-Bromo-1-(3-(tert-butyl)-4-hydroxy-5-propylphenyl)naphthalen-2-ol]	–
–	–	–	COc1cc(CCc2ccc(C(C)(C)C)c(O)c2)ccc1C(C)(C)C [Compound 1H-2, (tert-butyl)-5-(4-(tert-butyl)-3-methoxyphenethyl)phenol]	red blood cell lysis ([4]; Concentration 0.25 μM): 0.13; red blood cell lysis ([4]; Concentration 0.5 μM): −0.02; red blood cell lysis ([4]; Concentration 1 μM): −0.02; red blood cell lysis ([4]; Concentration 2 μM): −0.03; red blood cell lysis ([4]; Concentration 4 μM): 0.16; red blood cell lysis ([4]; Concentration 8 μM): −0.03; red blood cell lysis ([4]; Concentration 16 μM): −0.03; red blood cell lysis ([4]; Concentration 32 μM): −0.02; red blood cell lysis ([4]; Concentration 63 μM): 0.02; red blood cell lysis ([4]; Concentration 125 μM): 0.12; red blood cell lysis ([4]; Concentration 250 μM): 0.21; red blood cell lysis [4, 5]: 0.33
> 250 µM	> 250 µM	> 250 µM	COc1cc(-c2c(O)ccc3ccccc23)cc(OC)c1O [Compound B2, 1-(4-Hydroxy-3,5-dimethoxyphenyl)naphthalen-2-ol]	–
–	–	–	CC(C)(C)c1ccc(CCc2cccc(O)c2)cc1O [Compound 1H-3, 2-(tert-butyl)-5-(3-hydroxyphenethyl)phenol]	red blood cell lysis ([4]; Concentration 0.25 μM): 0.11; red blood cell lysis ([4]; Concentration 0.5 μM): 0.00; red blood cell lysis ([4]; Concentration 1 μM): −0.03; red blood cell lysis ([4]; Concentration 2 μM): −0.03; red blood cell lysis ([4]; Concentration 4 μM): −0.03; red blood cell lysis ([4]; Concentration 8 μM): 0.29; red blood cell lysis ([4]; Concentration 16 μM): −0.03; red blood cell lysis ([4]; Concentration 32 μM): −0.03; red blood cell lysis ([4]; Concentration 63 μM): 0.00; red blood cell lysis ([4]; Concentration 125 μM): 0.46; red blood cell lysis ([4]; Concentration 250 μM): 0.69; red blood cell lysis [4, 5]: 0.81
> 250 µM	> 250 µM	> 250 µM	Cc1cc(-c2c(O)ccc3ccccc23)cc(C)c1O [Compound B1, 1-(4-Hydroxy-3,5-dimethylphenyl)naphthalene-2-ol]	–
> 250 µM	> 250 µM	> 250 µM	CCCc1c(C)cc(C)c(-c2c(C)cc(C)c(CCC)c2O)c1O [Compound A4, 4,4’,6,6′-Tetramethyl-3,3′-dipropyl-[1,1′-diphenyl]2,2′-diol]	–
